From patent US10781224B2, “Bis(oxymethyl)phosphinic acid and biogenic metal salts thereof as regulators of plant growth and development” (priority 2016, dated 2020)

Assays:
Format in all cases: in vivo
[1] = test system: spring wheat (Ekada-66 variety); test: Spring wheat seed treatment: germination rate and plant height (laboratory, Petri dishes); conditions: spring wheat
Protocol: (§1) Control—Soaking Seeds in Water;
(§2) Experimental versions—soaking seeds in BHMPA solutions and solutions of BHMPA Ca, Mg, Na, Co, Mn, Cu, and Zn salts at 1·10^−6-1·10^−12% concentrations (doses). The studies were conducted in laboratory in Petri dishes; seed bed—two layers of filter paper. 50 seeds soaked in water (control) and in the solutions of the tested compounds (experimental) were placed into each dish. Wheat, corn, and rice seeds were exposed for one hour.
(§3) Analysis was conducted according to the government standards GOST 12038-84 “Crop seeds. Technical conditions for determining the germination energy and germination rate”, GOST 12044-93 “Crop seeds. Methods for determining disease contamination.”
(§4) Seed germination energy and rate were calculated in percent as an arithmetic mean of the four experimental results (germination energy on the 4th day, wheat germination on the 8th day, rice and corn germination—on the 7th day). Germination was determined based on the germinating power indicators (length of the roots and sprouts and their wet and dry mass per 100 shoots).
The study of the effect of pre-sowing seed treatment with BHMPA was conducted on winter wheat (Kazan-500 variety) and spring wheat (Ekada-66 variety).

[2] = test system: winter wheat (Vershin variety); test: Winter wheat seed treatment with BHMPA salts: germinating power (length and mass of roots and sprouts); conditions: comparative study, 1·10^−7% solution
Protocol: as §2, §4
(§5) The effect of pre-sowing seed treatment with the claimed BHMPA salts of biogenic metals was studied on winter wheat (Vershin variety), corn (Krasnodar 385 MV variety), and rice (Diamant variety).
(§6) The above data describe the seed viability only at the initial stage of germination, while the germination ability at the later stage of germination is defined by the initial germinating power. The method for the determination of the germinating power comprises measuring the height of the sprouts and primary roots, as well as the biomass and the dry mass thereof per 100 seedlings. [M. A. Kartuzova. Initial Germinating Power as Method of Biological Assessment of Seed Quality. Selection and Seed Farming, #2, 1953].

rice (Diamant variety) [3] = test: Rice seed treatment with BHMPA salts: germinating power; conditions: rice seed treatment, comparison with Melaphen (Table XXXIII), solution 1 · 10^−8%
Protocol: as §2, §4, §5, §6

[4] = test system: corn (Krasnodar 385 MV variety); test: Corn seed treatment with BHMPA salts: germination energy and germination rate; conditions: comparative study vs Melaphen, 1·10^−7% solution
Protocol: as §1, §2, §3, §4, §5

[5] = test system: winter wheat (Kazan 560 variety); test: Field study: winter wheat seed treatment and spraying, yield and quality of the grain; conditions: for Field germination, % / Grain mass from the main ear / Number of grains in an ear / Viability, % / Yield, dt/ha: winter wheat
Protocol: Field studies were conducted for the BHMPA Mg-salt. The effect of treatment winter wheat seeds (Kazan 560 variety) with BHMPA Mg-salt solutions on the yield and quality of the grain was examined. The field experiment was conducted at a branch of a fallow rotation. The seeds were sowed on Sep. 1, 2015, in an area covering 1.7 hectares of the experimental field located at the experimental base of Tatarstan Research Institute of Agriculture. For comparison, the seeds were treated with the BHMPA Mg-salt solution and the known growth-regulator Melaphen at the same concentrations, optimum for Melaphen.
The experiment was conducted for the following variants: • 1. Control (no seed treatment); • 2. Seed treatment with the BHMPA Mg-salt solution at a 1·10^−7% concentration; • 3. Seed treatment with the BHMPA Mg-salt solution at a 1·10^−7% concentration+spraying with the BHMPA Mg-salt solution at a 1·10^−8% concentration upon vegetation during spring tillering and earing phases; • 4. Seed treatment with the growth regulator Melaphen at a 1·10^−7% concentration; • 5. Seed treatment with Melaphen at a 1·10^−7% concentration and spraying with Melaphen at a 1·10^−8% concentration upon vegetation during spring tillering and earing phases.
The seeds were treated with the experimental compounds together with a seed disinfectant at a rate of 10 ml/T. The vegetating plants were treated at a rate of 5 ml/ha. Identical field operations appropriate for that zone as well as plant protection measures against weeds and disease, were applied in all cases.
Results of field experiments with BHMPA Mg-salt as the main growth-regulating component of said pre-sowing seed treatment combined with additional treatment of winter wheat plants with other claimed BHMPA salts, are presented in Table XXXV.

[6] = test system: corn (Krasnodar 385 MV variety); test: Corn seed treatment with BHMPA salts: germinating power; conditions: corn seeds; solution concentration 1 · 10^−7%
Protocol: as §2, §4, §5, §6

rice (Diamant variety) [7] = test: Rice seed treatment with BHMPA salts: germination energy and germination rate
Protocol: as §1, §2, §3, §4, §5

[8] = test system: winter wheat (Vershin variety); test: Winter wheat seed treatment with BHMPA salts: germination energy and germination rate; conditions: winter wheat; comparative study vs Melaphen; 1·10^−7% solution
Protocol: as §1, §2, §3, §4, §5

[9] = seed treatment 1 · 10^−7% + spraying plants with the same substance 1 · 10^−8%
[10] = rice seed treatment, solution 1 · 10^−8%
[11] = rice, comparative study vs Melaphen, 1·10^−8% solution

In the case of `Nc1nc(N)nc(N)n1.O=P(O)(CO)CO` [Melaphen, melamine salt of BHMPA, reference compound], the “Germination rate % 4th day” value ([1]; 1·10^−7% solution) is reported as 54.0%, the “Germination rate % 8th day” value ([1]; 1·10^−7% solution) is reported as 82.0% and the Plant height ([1]; 1·10^−7% solution) is reported as 14.8 cm. For the same compound, the “Germination rate % 4th day” value ([1]; 1·10^−9% solution) was 52.0%, the “Germination rate % 8th day” value ([1]; 1·10^−9% solution) was 81.0% and the Plant height ([1]; 1·10^−9% solution) was 14.5 cm. The Length, root [2] was 10.3 cm, the “Length, root, + % to control” value [2] was 18% and the Length, sprout [2] was 7.3 cm. The “Length, sprout, + % to control” value [2] was 18%, the Mass, dry, root [2] was 0.72 g/100 plantlings and the “Mass, dry, root, + % to control” value [2] was 16%. The Mass, dry, sprout [2] was 0.59 g/100 plantlings, the “Mass, dry, sprout, + % to control” value [2] was 16% and the Mass, wet, root [2] was 6.02 g/100 plantlings. For the same compound, the “Mass, wet, root, + % to control” value [2] was 66%, the Mass, wet, sprout [2] was 5.27 g/100 plantlings and the “Mass, wet, sprout, + % to control” value [2] was 33%. For the same compound, the “Length, root” value (rice (Diamant variety) [3]) was 7.6 cm, the “Length, root, + % to control” value (rice (Diamant variety) [3]) was 58% and the “Length, sprout” value (rice (Diamant variety) [3]) was 4.9 cm. The “Length, sprout, + % to control” value (rice (Diamant variety) [3]) was 88%, the “Mass, dry, root” value (rice (Diamant variety) [3]) was 0.29 g/100 plantlings and the “Mass, dry, root, + % to control” value (rice (Diamant variety) [3]) was 38%. For the same compound, the “Mass, dry, sprout” value (rice (Diamant variety) [3]) was 0.35 g/100 plantlings, the “Mass, dry, sprout, + % to control” value (rice (Diamant variety) [3]) was 40% and the “Mass, wet, root” value (rice (Diamant variety) [3]) was 1.57 g/100 plantlings. For the same compound, the “Mass, wet, root, + % to control” value (rice (Diamant variety) [3]) was 60%, the “Mass, wet, sprout” value (rice (Diamant variety) [3]) was 2.62 g/100 plantlings and the “Mass, wet, sprout, + % to control” value (rice (Diamant variety) [3]) was 73.5%. For the same compound, the Germination energy [4] was 90.7%, the Germination rate [4] was 97.7% and the “yield of winter wheat” value ([5]; field, seeds treated at 1·10^−7% and plants sprayed with 1·10^−8%, control 21.7 dt/ha) was 29.3 dt/ha. For the same compound, the “Field germination, %” value ([5]; seed treatment 1 · 10^−7%) was 71%, the “Grain mass from the main ear” value ([5]; seed treatment 1 · 10^−7%) was 1.0 g and the “Number of grains in an ear” value ([5]; seed treatment 1 · 10^−7%) was 27. For the same compound, the “Viability, %” value ([5]; seed treatment 1 · 10^−7%) was 74%, the “Yield, dt/ha” value ([5]; seed treatment 1 · 10^−7%) was 28.0 dt/ha and the “Field germination, %” value [5, 9] was 71%. For the same compound, the “Grain mass from the main ear” value [5, 9] was 1.2 g, the “Number of grains in an ear” value [5, 9] was 30 and the “Viability, %” value [5, 9] was 62%. The “Yield, dt/ha” value [5, 9] was 29.3 dt/ha, the “Length, root” value [6] was 8.4 cm and the “Length, root, + % to control” value [6] was 42%. The “Length, sprout” value [6] was 4.3 cm, the “Length, sprout, + % to control” value [6] was 59% and the “Mass, dry, root” value [6] was 2.42 g/100 plantlings. For the same compound, the “Mass, dry, root, + % to control” value [6] was 37.5%, the “Mass, dry, sprout” value [6] was 1.86 g/100 plantlings and the “Mass, dry, sprout, + % to control” value [6] was 37%. The “Mass, wet, root” value [6] was 12.02 g/100 plantlings, the “Mass, wet, root, + % to control” value [6] was 37% and the “Mass, wet, sprout” value [6] was 10.23 g/100 plantlings. For the same compound, the “Mass, wet, sprout, + % to control” value [6] was 44%, the “Germination energy, %” value (rice (Diamant variety) [7]; [10]) was 89.5% and the “Germination rate, %” value (rice (Diamant variety) [7]; [10]) was 96.3%. For the same compound, the Germination energy (rice (Diamant variety) [7]; [11]) was 89.5%, the Germination rate (rice (Diamant variety) [7]; [11]) was 96.3% and the Germination energy [8] was 95.0%. It also gave a Germination rate [8] of 98.3%.
